Our source for the IC50 values is US9862711B2, “Pyrazine derivatives as phosphatidylinositol 3-kinase inhibitors” (NOVARTIS AG, priority 2014, dated 2018).

Chain of PI 3-kinase delta (O00329 2-1044): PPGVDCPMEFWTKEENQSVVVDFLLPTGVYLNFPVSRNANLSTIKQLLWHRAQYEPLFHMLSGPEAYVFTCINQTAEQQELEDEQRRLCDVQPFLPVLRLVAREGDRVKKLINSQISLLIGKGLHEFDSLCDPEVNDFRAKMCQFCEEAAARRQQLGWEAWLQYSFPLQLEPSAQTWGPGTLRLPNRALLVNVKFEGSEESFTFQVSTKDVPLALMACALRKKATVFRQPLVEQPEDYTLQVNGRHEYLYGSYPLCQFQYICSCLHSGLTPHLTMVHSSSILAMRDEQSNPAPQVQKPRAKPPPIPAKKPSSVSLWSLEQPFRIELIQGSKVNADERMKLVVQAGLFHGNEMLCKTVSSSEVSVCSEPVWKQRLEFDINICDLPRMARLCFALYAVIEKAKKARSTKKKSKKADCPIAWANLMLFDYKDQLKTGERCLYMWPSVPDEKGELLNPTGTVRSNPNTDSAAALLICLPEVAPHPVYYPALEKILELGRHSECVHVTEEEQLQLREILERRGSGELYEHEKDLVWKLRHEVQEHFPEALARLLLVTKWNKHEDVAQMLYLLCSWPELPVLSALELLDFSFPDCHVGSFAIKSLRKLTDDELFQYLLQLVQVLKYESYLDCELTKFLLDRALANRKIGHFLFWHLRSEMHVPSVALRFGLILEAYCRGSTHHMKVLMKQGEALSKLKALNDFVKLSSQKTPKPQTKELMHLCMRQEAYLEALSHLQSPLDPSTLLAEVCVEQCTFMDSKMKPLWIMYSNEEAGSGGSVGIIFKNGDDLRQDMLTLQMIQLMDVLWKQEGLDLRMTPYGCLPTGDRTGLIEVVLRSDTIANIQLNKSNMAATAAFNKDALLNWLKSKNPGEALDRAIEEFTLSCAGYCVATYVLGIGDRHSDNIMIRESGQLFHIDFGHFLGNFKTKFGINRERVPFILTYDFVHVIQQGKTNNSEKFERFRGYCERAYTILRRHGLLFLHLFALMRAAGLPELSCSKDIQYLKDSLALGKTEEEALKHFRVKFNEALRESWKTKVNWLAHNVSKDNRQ

In this assay the target is PI 3-kinase delta (Homo sapiens (Human), UniProt O00329). Kind of assay: TR-FRET Adapta assay (Assay F). In kind it is biochemical. As to conditions: read-out: Assay F PI3Kδ IC50. From the text:
TR-FRET Adapta Assay for PI 3-Kinase Gamma (E), PI 3-Kinase Delta (F)
The TR-FRET Adapta™ Universal Kinase Assay Kit was purchased from Invitrogen Corporation (Carlsbad/CA, USA) (Cat. No. PV5099). The kit contains the following reagents: Adapta Eu-anti-ADP Antibody (Europium labeled anti-ADP antibody in HEPES buffered saline, Cat. No. PV5097), Alexa Fluor® 647-labeled ADP tracer (Alexa Fluor® 647-labeled ADP tracer in HEPES buffered saline, Cat. No. PV5098), TR-FRET dilution buffer pH 7.5 (Cat. No. PV3574). PIK3CD substrate phosphatidylinositol (PI) was obtained from Invitrogen (vesicules consisting of 2 mM phosphatidylinositol (PI) in 50 mM HEPES pH7.5; Cat. No. PV5371). PIK3CG substrate phosphatidylinositol-4,5-bisphosphate (PIP(4,5)2 was obtained from Invitrogen (PIP2:PS large unilamellar vesicules consisting of 1 mM PIP2: 19 mM PS in 50 mM HEPES pH7.5, 3 mM MgCl2, 1 mM EGTA; Cat. No. PV5100).
Time-Resolved Fluorescence Resonance Energy Transfer (TR-FRET) is a technology based on energy transfer between two adjacent dyes, from an excited electron in one dye (the donor) to an electron of an adjacent dye (the acceptor) through resonance, then released as a photon. This energy transfer is detected by an increase in the fluorescence emission of the acceptor, and a decrease in the fluorescence emission of the donor. TR-FRET assays for protein kinases use a long-lifetime lanthanide Terbium or Europium chelates as the donor species which overcome interference from compound autofluorescence or light scatter from precipitated compounds, by introducing a delay after excitation by a flashlamp excitation source. Results are often expressed as a ratio of the intensities of the acceptor and donor fluorophores. The ratiometric nature of such a value corrects for differences in assay volumes between wells, as well as corrects for quenching effects due to colored compounds. The Adapta™ assay can be divided into two phases: a kinase reaction phase and an ADP detection phase. In the kinase reaction phase, all kinase reaction components are added to the well and the reaction is allowed to incubate for a set period of time specific for each kinase. After the reaction, a detection solution of Eu-labeled anti-ADP antibody, Alexa Fluor® 647-labeled ADP tracer, and EDTA (to stop the kinase reaction) are added to the assay well. ADP formed by the kinase reaction will displace the Alexa Fluor® 647-labeled ADP tracer from the antibody, resulting in a decrease in TR-FRET signal. In the presence of an inhibitor, the amount of ADP formed by the kinase reaction is reduced, and the resulting intact antibodytracer interaction maintains a high TR-FRET signal. In the Adapta™ assay, the donor (Europium-anti-ADP antibody) is excited at 340 nm and will transfer its energy to the acceptor (Alexa Fluor® 647-labeled ADP tracer). The emission from the Alexa Fluor® 647 can be monitored with a filter centered at 665 nm because it is located between the emission peaks of the donor, which is measured at 615/620 nm. 50 nL of compound dilutions were dispensed onto white 384-well small volume polystyrene plate. Then 5 μL of either PI 3-kinase gamma or PI 3-kinase delta and lipid substrate (P1 or PIP2:PS) followed by 5 μL of ATP (final assay volume 10 μL) are incubated at RT. The standard reaction buffer for the Adapta™ TR-FRET assay contained 10 mM Tris-HCl pH 7.5, 3 mM MgCl2, 50 mM NaCl, 1 mM DTT, 0.05% CHAPS ((3-[(3-cholamidopropyl)dimethylammonio]-1-propanesulfonate). Reactions were stopped with 5 μL of a mixture of EDTA containing the Eu-labeled anti-ADP antibody and the Alexa Fluor® 647-labeled ADP tracer in TR-FRET dilution buffer. Plates are read 15 to 60 mins later in a Synergy2 reader using an integration time of 0.4 seconds and a delay of 0.05 seconds. Control for the 100% inhibition of the kinase reaction was performed by replacing the PI 3-kinase by the standard reaction buffer. […]
Turning to `Cc1ccc(S(=O)(=O)NCC2(C)COC2)cc1-c1cncc(-c2cn(C)nc2C)n1` [Example 4, Trans 3-[6-(1,3-Dimethyl-1H-pyrazol-4-yl)-pyrazin-2-yl]-4-methyl-N-(3-methyl-oxetan-3-ylmethyl)-benzenesulfonamide], the half-maximal inhibitory concentration (IC50) stood at 70 nM. Under `Cc1ccc(S(=O)(=O)NCCC(C)(C)O)cc1-c1cncc(-c2cn(CCN3CCOCC3)nc2C)n1` [Example 10, N-(3-Hydroxy-3-methyl-butyl)-4-methyl-3-{6-[3-methyl-1-(2-morpholin-4-yl-ethyl)-1H-pyrazol-4-yl]-pyrazin-2-yl}-benzenesulfonamide] stands 20 nM; under `Cc1ccc(S(=O)(=O)N[C@H]2CC[C@H](O)CC2)cc1-c1cncc(-c2cccnc2)n1` [Example 11, Trans N-(4-Hydroxy-cyclohexyl)-4-methyl-3-(6-pyridin-3-yl-pyrazin-2-yl)-benzenesulfonamide], 120 nM.

As for `Cc1ccc(S(=O)(=O)NCCC(C)(C)O)cc1-c1cncc(-c2cn(C)nc2C)n1` [Example 3, 3-[6-(1,3-Dimethyl-1H-pyrazol-4-yl)-pyrazin-2-yl]-N-(3-hydroxy-3-methyl-butyl)-4-methyl-benzenesulfonamide], the IC50 is 70 nM. The same measure for `Cc1ncc(-c2cncc(-c3cc(S(=O)(=O)NCCCO)ccc3C)n2)s1` [Example 1, N-(3-Hydroxy-propyl)-4-methyl-3-[6-(2-methyl-thiazol-5-yl)-pyrazin-2-yl]-benzenesulfonamide]: 200 nM; for `Cc1ccc(S(=O)(=O)NCC(C)(C)CO)cc1-c1cncc(-c2cn(C)nc2C)n1` [Example 8, 3-[6-(1,3-Dimethyl-1H-pyrazol-4-yl)-pyrazin-2-yl]-N-(3-hydroxy-2,2-dimethyl-propyl)-4-methyl-benzenesulfonamide]: 70 nM.

Turning to `Cc1ncc(-c2cncc(-c3cc(S(=O)(=O)N[C@H]4CC[C@H](O)CC4)ccc3C)n2)s1` [Example 5, Trans N-(4-Hydroxycyclohexyl)-4-methyl-3-(6-(2-methylthiazol-5-yl)pyrazin-2-yl)benzenesulfonamide], the IC50 is 90 nM. Under `Cc1ccc(S(=O)(=O)NCC(C)(C)O)cc1-c1cncc(-c2cn(C)nc2C)n1` [Example 2, 3-[6-(1,3-Dimethyl-1H-pyrazol-4-yl)-pyrazin-2-yl]-N-(2-hydroxy-2-methyl-propyl)-4-methyl-benzenesulfonamide] stands 60 nM. Take `Cc1ccc(S(=O)(=O)NCCC(C)(C)O)cc1-c1cncc(-c2cnn(CCN3CCOCC3)c2)n1` [Example 9, N-(3-Hydroxy-3-methyl-butyl)-4-methyl-3-{6-[1-(2-morpholin-4-yl-ethyl)-1H-pyrazol-4-yl]-pyrazin-2-yl}-benzenesulfonamide]: the IC50 was 10 nM.
